Experimental findings from publication PMC11597207, “Synthesis and Anti-Inflammatory and Analgesic Potentials of Ethyl 2-(2,5-Dioxo-1-Phenylpyrrolidin-3-yl)-2-Methylpropanoate” (Pharmaceuticals, 2024) are described below.

SMILES strings stand for the structures.

For assay [1], the target named is T1, COX-2 (Homo sapiens, UniProt P35354).
T1 construct: purchased Cayman Chemical Batch No.: G5234
T1 sequence (P35354 18-604): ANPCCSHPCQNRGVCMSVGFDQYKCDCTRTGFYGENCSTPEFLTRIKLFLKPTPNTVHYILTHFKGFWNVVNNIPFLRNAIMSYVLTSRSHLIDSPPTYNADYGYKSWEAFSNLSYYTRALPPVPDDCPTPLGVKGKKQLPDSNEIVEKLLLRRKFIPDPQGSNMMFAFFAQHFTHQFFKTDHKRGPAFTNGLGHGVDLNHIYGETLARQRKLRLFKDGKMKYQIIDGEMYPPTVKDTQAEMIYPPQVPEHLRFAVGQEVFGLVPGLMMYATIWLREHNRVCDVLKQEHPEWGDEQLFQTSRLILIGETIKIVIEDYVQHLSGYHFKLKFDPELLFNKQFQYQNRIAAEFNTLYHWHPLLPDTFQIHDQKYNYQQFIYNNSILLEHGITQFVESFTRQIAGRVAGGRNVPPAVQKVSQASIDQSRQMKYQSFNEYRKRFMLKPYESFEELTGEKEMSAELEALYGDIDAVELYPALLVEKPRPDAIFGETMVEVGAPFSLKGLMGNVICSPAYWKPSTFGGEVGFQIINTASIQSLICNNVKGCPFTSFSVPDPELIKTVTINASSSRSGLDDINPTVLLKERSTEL
Kind of assay: COX-2 inhibitory assay. Format: biochemical. As to the method:
The inhibitory potential of synthesized MAK01 was assessed using the COX-2 inhibitory protocol. The process started with the preparation of a COX-2 enzyme solution with a concentration of 300 U per ml. The activation of the enzymes was achieved by taking and mixing 10 μL and 50 μL of the COX-2 enzyme solution and a co-factor solution, respectively. Once mixed, this solution needed to be chilled. The chilling process was carried out at 4 °C in an ice bath. The duration for this cooling phase was set at five to six minutes. […] It was made up of 0.1 M Tris buffer with a pH of 8.0, 1 mM of hematin, 0.9 mM of glutathione, and 0.24 mM of TMPD in a phosphate buffer. Following the initial steps, a test sample was prepared. The volume of this sample was fixed at 20 μL. The 20 μL sample was mixed with 60 μL COX-2 solution. After combining them, the sample and enzyme solution were kept at ambient temperature. The solution was allowed to rest for a duration from five to ten minutes. To start the reaction, 20 μL of 30 mM arachidonic acid was incorporated. Upon adding the acid, the solution was subjected to an incubation period. This period lasted for 15 min at a temperature of 37 °C. Post incubation, HCl was added to stop the reaction. The absorbance of this final solution was then measured. This was carried out using a UV–visible spectrophotometer at a specific 570 nm wavelength. Similarly, the above procedure was used for all the other concentrations of the test sample. The COX-2 enzyme inhibition was calculated as per the below equation. […] Using the below formula, the percent inhibition of each sample was calculated. % Inhibition=Abs. test sample−Abs. background/Abs. solvent blank−Abs. background×100
Using established protocols, the inhibitory potency of MAK01 against both COX-1 and COX-2 enzymes was assessed. This evaluation allowed for the determination of the selectivity of these new compounds. The IC50 values for both COX-1 and COX-2 were then used to calculate the selectivity index of the compound.

Assay [2] concerns the target T2, 5-LOX (Homo sapiens, UniProt P09917).
T2 construct: purchased Cayman Chemical Batch No.: A3457
T2 sequence (P09917 1-674): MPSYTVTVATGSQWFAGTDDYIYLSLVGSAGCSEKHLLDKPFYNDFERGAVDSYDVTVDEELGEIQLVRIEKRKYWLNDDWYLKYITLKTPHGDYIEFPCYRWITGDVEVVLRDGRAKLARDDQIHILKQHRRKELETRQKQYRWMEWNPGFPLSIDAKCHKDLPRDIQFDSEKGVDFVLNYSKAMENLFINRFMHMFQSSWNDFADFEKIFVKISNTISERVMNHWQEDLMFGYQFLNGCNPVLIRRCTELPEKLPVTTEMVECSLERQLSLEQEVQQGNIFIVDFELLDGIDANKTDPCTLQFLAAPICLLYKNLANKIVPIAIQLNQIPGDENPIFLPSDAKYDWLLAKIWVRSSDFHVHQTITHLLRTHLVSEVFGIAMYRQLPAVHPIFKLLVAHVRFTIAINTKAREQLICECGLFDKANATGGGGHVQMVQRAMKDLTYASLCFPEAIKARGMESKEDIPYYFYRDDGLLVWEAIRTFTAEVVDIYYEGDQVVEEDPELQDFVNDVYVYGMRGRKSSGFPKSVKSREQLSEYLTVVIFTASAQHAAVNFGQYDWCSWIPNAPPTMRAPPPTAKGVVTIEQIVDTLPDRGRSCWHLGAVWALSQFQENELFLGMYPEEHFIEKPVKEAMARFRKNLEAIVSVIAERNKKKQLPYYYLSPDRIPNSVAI
Put plainly: 5-LOX inhibitory assay. It is filed as biochemical. As to the method: The activity of MAK01 against the 5-LOX enzyme was investigated using a human recombinant form of 5-LOX [47]. To begin the 5-LOX activity assay, a 10,000 U/mL solution of 5-LOX was prepared in a phosphate buffer with a pH of 6.3. A range of concentrations of the test compounds in the same buffer were prepared for assay. As a substrate for 5-LOX, linoleic acid (80 mM) was diluted with ethyl alcohol and used in the assay. The experiment involved mixing the same amount of both the enzyme solution and the test sample, such as mixing 0.25 mL 5-LOX with 0.25 mL of the compound, both dissolved in buffer. The mixing was followed by incubation at 25 °C for 5 to 10 min. Subsequently, 0.10 mL of the linoleic acid solution was added and allowed to incubate for another 5 min. The absorbance was measured using a UV–visible spectrophotometer at a wavelength of 234 nm, and the percent inhibition was calculated based on the absorbance readings. The same procedure was repeated for different concentrations of the test samples. Zileuton, as a reference drug, was used in comparisons. Using the following formula, the percent inhibition for each sample was calculated: % Inhibition=Abs. of Control−Abs. of Sample/Abs. of Control×100

Broadly, the IC50 is the midpoint of a concentration-inhibition curve. Lower therefore signals inhibition by little substance. The term inhibition denotes the relative decrease from the control value, in per cent. Consider `CCOC(=O)C(C)(C)C1CC(=O)N(c2ccccc2)C1=O` (centres unmarked) [MAK01, ethyl 2-(2,5-dioxo-1-phenylpyrrolidin-3-yl)-2-methylpropanoate], for which the half-maximal inhibitory concentration (IC50) in assay [1] was 449 µM; in assay [2], 363 µM. Moreover, the COX-2 percent inhibition in assay [1] (62.5 μg/mL) was 40%; in assay [1] (125 μg/mL) it was 49%; in assay [1] (250 μg/mL) it was 59%; in assay [1] (500 μg/mL) it was 68%; in assay [1] (1000 μg/mL), 79%. Moreover, the inhibition at 62.5 µg/mL in assay [1] (62.5 μg/mL, read-out: COX-2 percent inhibition) came to 40.1%; in assay [2] (62.50 μg/mL, read-out: 5-LOX percent inhibition) it was 44.8%. In addition, the inhibition at 125 µg/mL in assay [1] (125 μg/mL, read-out: COX-2 percent inhibition) is 49.4%; in assay [2] (125 μg/mL, read-out: 5-LOX percent inhibition) it was 51.9%. Moreover, the inhibition at 250 µg/mL was 58.9% in assay [1] (250 μg/mL, read-out: COX-2 percent inhibition) and 60.2% in assay [2] (250 μg/mL, read-out: 5-LOX percent inhibition). Besides, the inhibition at 500 µg/mL worked out at 67.8% in assay [1] (500 μg/mL, read-out: COX-2 percent inhibition) and 69.9% in assay [2] (500 μg/mL, read-out: 5-LOX percent inhibition). The inhibition at 1000 µg/mL was determined as 78.7% in assay [1] (1000 μg/mL, read-out: COX-2 percent inhibition) and 79.4% in assay [2] (1000 μg/mL, read-out: 5-LOX percent inhibition). Further, in assay [1] (from IC50 values of COX-1 and COX-2), the “Selectivity for COX-2 compared to COX-1” value is given as 3 fold. For the same compound, the 5-LOX percent inhibition is recorded as 45% in assay [2] (62.50 μg/mL); 52% in assay [2] (125 μg/mL); 60% in assay [2] (250 μg/mL); 70% in assay [2] (500 μg/mL); 79% in assay [2] (1000 μg/mL).
